Results reported in the supplement of paper PMC7600603.

What was measured:
[1] = system: DLD1 NRF2-GOF; details: 72 h; CellTiter-Glo viability
Procedure, shortened: (§1)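 In 384-well plates, library compounds were applied at 5 concentrations spanning a 10,000-fold range to isogenic DLD1 colorectal cancer cells, NRF2 wild-type or CRISPR gain-of-function, maintained in DMEM with 10% FBS. A Pherastar FS reader recorded CellTiter-Glo signal at 72 h, with normalisation to vehicle wells and 100-μM positive-control wells. Curves were fitted with a four-parameter logistic model. EC50 and drug sensitivity score, a normalised area under the curve, came from those curves.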

[2] = system: DLD1 NRF2-GOF; assay: TC50 cytotoxicity; higher = less toxic; details: 72 h; CellTox Green cytotoxicity
Procedure, shortened: (§2)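 TC50 and drug sensitivity score, a normalised area under the curve, were derived by logistic dose-response fits of cytotoxicity. The cells were an isogenic DLD1 colorectal cancer pair, NRF2 wild-type or CRISPR-edited, kept in DMEM with 10% FBS. Compounds were tested in 384-well plates at 5 concentrations across a 10,000-fold range for 72 h. Readings with CellTox Green on a Pherastar FS reader were normalised to vehicle wells and 100-μM positive-control wells.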

[3] = system: DLD1 NRF2-WT; assay: TC50 cytotoxicity; higher = less toxic; details: 72 h; CellTox Green cytotoxicity
Procedure, shortened: as §2

[4] = system: DLD1 NRF2-GOF; assay: drug sensitivity score (DSS) cytotoxicity (DSS score); higher = more toxic; extreme values may be limits of the assay; details: 72 h; CellTox Green cytotoxicity
Procedure, shortened: as §2

[5] = system: DLD1 NRF2-WT; assay: as above; details: 72 h; CellTox Green cytotoxicity
Procedure, shortened: as §2

[6] = system: DLD1 NRF2-GOF; assay: drug sensitivity score (DSS) viability (DSS score); higher = more sensitive; extreme values may be limits of the assay; details: 72 h; CellTiter-Glo viability
Procedure, shortened: as §1

[7] = system: DLD1 NRF2-WT; assay: as above; details: 72 h; CellTiter-Glo viability
Procedure, shortened: as §1

[8] = system: DLD1 NRF2-WT; details: 72 h; CellTiter-Glo viability
Procedure, shortened: as §1

Compound	EC50 viability [1]	EC50 viability [8]	TC50 cytotoxicity [2]	TC50 cytotoxicity [3]	drug sensitivity score [4]	drug sensitivity score [5]	drug sensitivity score [6]	drug sensitivity score [7]
Cn1ncc(Cl)c1-c1cc(C(=O)N[C@H](CN)Cc2cccc(F)c2)sc1Cl [Afuresertib]	> 1000 nM		> 1000 nM	> 1000 nM	0	0	0.6	1
CC1CCC(n2c3cnccc3c3cnc(Nc4ccc5c(n4)CCN(C(=O)CO)C5)nc32)CC1 (stereo unspecified) [AMG-925]	> 1000 nM	99.7 nM					0.5	3.2
CC(C)C(=O)Nc1ccc([N+](=O)[O-])c(C(F)(F)F)c1 [Flutamide]	796 nM		> 10000 nM	> 10000 nM	0	0	4.6	0.9
C[C@H](Nc1ncnc2[nH]cnc12)c1cc2ccc(F)cc2nc1-c1ccccn1 [AMG319]	> 1000 nM		> 1000 nM	> 1000 nM	0	0	1.6	
CO[C@H]1C[C@@H]2CC[C@@H](C)[C@@](O)(O2)C(=O)C(=O)N2CCCC[C@H]2C(=O)O[C@H]([C@H](C)C[C@@H]2CC[C@@H](OCCO)[C@H](OC)C2)CC(=O)[C@H](C)/C=C(\C)[C@@H](O)[C@@H](OC)C(=O)[C@H](C)C[C@H](C)/C=C/C=C/C=C/1C [Everolimus]		11.7 nM	> 100 nM	> 100 nM	0	0	2.5	4.7
CC/C(=C(\c1ccc(O)cc1)c1ccc(OCCN(C)C)cc1)c1ccccc1 [4-hydroxytamoxifen]	8.8 nM		> 10000 nM	> 10000 nM	0	0	10.6	5
CN(C)CC#Cc1ccc(OCCCc2sc(N3CCc4cccc(C(=O)Nc5nc6ccccc6s5)c4C3)nc2C(=O)O)c(F)c1	> 10000 nM		994 nM		3.3		0	
Nc1ncnc2c1c(COc1cccc(Cl)c1)nn2C1CCOCC1	> 10000 nM		> 10000 nM	> 10000 nM	0	0	0.6	
Oc1ncnc2[nH]ncc12 [Allopurinol]	> 10000 nM		> 10000 nM	> 10000 nM	0	0	0	
O=S(=O)(c1cccc2c(O)nccc12)N1CCCNCC1 [Hydroxyfasudil]	2830 nM		> 19000 nM	> 19000 nM	0	0	3.9	2.4
C[C@@H](Nc1cc(F)cc(F)c1)c1cc(C(=O)N(C)C)cc2c(=O)cc(N3CCOCC3)oc12 [AZD-8186]		59.8 nM	> 1000 nM	> 1000 nM	0	0	5.2	3.6
Cc1nc(NC(=O)N2CCC[C@H]2C(N)=O)sc1-c1ccnc(C(C)(C)C(F)(F)F)c1 [Alpelisib]	> 2500 nM		> 2500 nM	> 2500 nM	0	0	0.3	2.4

Now from value to compound, other results behind:

EC50 viability [1]	EC50 viability [8]	Compound	TC50 cytotoxicity [2]	TC50 cytotoxicity [3]	drug sensitivity score [4]	drug sensitivity score [5]	drug sensitivity score [6]	drug sensitivity score [7]
> 10000 nM	> 10000 nM	CN1C(=O)N[C@H](Cc2c[nH]c3c(Cl)cccc23)C1=O [Necrostatin 2]					0	0
28.3 nM		CS(=O)(=O)CCNCc1ccc(-c2ccc3ncnc(Nc4ccc(OCc5cccc(F)c5)c(Cl)c4)c3c2)o1 [Lapatinib]	> 1000 nM	> 1000 nM	0	0	4.4	2.8
5.1 nM		CCC1=C[C@@H]2CN(C1)Cc1c([nH]c3ccccc13)[C@@](C(=O)OC)(c1cc3c(cc1OC)N(C)[C@H]1[C@@](O)(C(=O)OC)[C@H](OC(C)=O)[C@]4(CC)C=CCN5CC[C@]31[C@@H]54)C2 [Vinorelbine]	> 10000 nM		7.5	8.1	32.2	
> 100 nM		CO[C@H]1C[C@@H]2CC[C@@H](C)[C@@](O)(O2)C(=O)C(=O)N2CCCC[C@H]2C(=O)O[C@H]([C@H](C)C[C@@H]2CC[C@@H](OP(C)(C)=O)[C@H](OC)C2)CC(=O)[C@H](C)/C=C(\C)[C@@H](O)[C@@H](OC)C(=O)[C@H](C)C[C@H](C)/C=C/C=C/C=C/1C [Ridaforolimus]					0.8	3.5
> 1000 nM		O=C(Nc1cnn2ccc(N3CCC[C@@H]3c3cc(F)ccc3F)nc12)N1CC[C@H](O)C1 [Larotrectinib]	> 1000 nM	> 1000 nM	0	0	0.5	
> 1000 nM		Cn1ncnc1[C@H]1c2n[nH]c(=O)c3cc(F)cc(c23)N[C@@H]1c1ccc(F)cc1 [Talazoparib]	> 1000 nM	> 1000 nM	0	0	2.4	5.6
	13.3 nM	Cc1cc(F)c(C(=O)Nc2cccc(-c3nncn3C(C)C)n2)cc1-n1cnc(C2CC2)c1 [Selonsertib]	> 1000 nM	> 1000 nM	0	0	3.7	4.9
8090 nM		Cn1nnc2c(C(N)=O)ncn2c1=O [Temozolomide]	> 100000 nM	> 100000 nM	0	0	4.1	
87.1 nM		CNC(=O)c1cc(Oc2ccc(NC(=O)Nc3ccc(Cl)c(C(F)(F)F)c3)cc2)ccn1 [Sorafenib]	> 1000 nM	> 1000 nM	0	0	3.3	1.2
2100 nM		O=C(c1ccc(OCCN2CCCCC2)cc1)c1c(-c2ccc(O)cc2)sc2cc(O)ccc12 [Raloxifene]					3.2	
	> 10000 nM	CS(=O)(=O)c1ccc(-c2cnc(N)c(C(=O)Nc3ccccc3)n2)cc1 [VE-821]	> 10000 nM	> 10000 nM	0	0	0.9	0.2
